Reference: article PMC10439028, “SGLT5 is the renal transporter for 1,5-anhydroglucitol, a major player in two rare forms of neutropenia” (Cellular and Molecular Life Sciences: CMLS, 2023)
Where “and” joins values, the source holds several entries; their conditions need not be identical. Equal values may be shown once. Read-outs that look alike come from different tables or passages of the source. One block for each molecule: values may come before it.

Legend:
Assay type in all cases: cell-based
[1] = target: T1, human SGLT5 (Homo sapiens, UniProt A0PJK1); assay: Inhibition of 10 µM radiolabelled 1,5-AG transport in HEK293T cells overexpressing human SGLT5
T1 construct: expressed in transfected cells
T1 sequence (A0PJK1 1-596): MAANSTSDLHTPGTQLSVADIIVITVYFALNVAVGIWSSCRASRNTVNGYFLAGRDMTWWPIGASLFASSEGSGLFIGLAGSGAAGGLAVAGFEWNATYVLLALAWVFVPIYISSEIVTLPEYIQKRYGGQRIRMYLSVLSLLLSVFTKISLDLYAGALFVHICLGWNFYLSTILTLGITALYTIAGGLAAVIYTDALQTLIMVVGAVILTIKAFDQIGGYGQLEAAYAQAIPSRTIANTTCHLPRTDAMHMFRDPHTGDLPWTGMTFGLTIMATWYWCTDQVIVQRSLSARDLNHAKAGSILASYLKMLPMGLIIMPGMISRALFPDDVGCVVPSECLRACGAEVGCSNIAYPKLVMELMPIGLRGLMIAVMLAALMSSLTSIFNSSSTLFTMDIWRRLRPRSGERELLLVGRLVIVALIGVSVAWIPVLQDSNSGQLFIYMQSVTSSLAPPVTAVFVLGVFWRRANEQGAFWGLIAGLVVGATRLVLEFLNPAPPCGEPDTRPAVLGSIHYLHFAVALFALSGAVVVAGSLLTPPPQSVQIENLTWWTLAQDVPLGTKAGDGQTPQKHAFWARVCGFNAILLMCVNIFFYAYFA
Protocol: (§1) For a typical transporter experiment we proceeded as follows. […] To minimize cell loss during the various washing steps in the radioactive uptake experiments, the wells where the cells were seeded were previously coated with poly- D-lysine, which improved their adhesion to the plastic surface of the wells. For this, each well of the 24-well plates was treated with 200 µl of a 0.01% poly-L-lysine solution for 10 min, washed 3 times with 1 ml of sterilized water and left to dry for 2 h. Only then could the 24-well plates be seeded with the appropriate cell lines and cultured overnight at 37 °C in 5% CO2.
(§2) On day two, the radioactive uptake assay could be performed. The cell culture media was removed by aspiration and cells were incubated for 20 min at 37 °C and 5% CO2 with a basal medium (10 mM HEPES, pH 7.4, 1 mM CaCl2, 1 mM MgCl2, 2 mM KCl) containing 140 mM choline chloride to deplete intracellular […] ions. This was subsequently replaced with the uptake medium (basal medium + 140 mM NaCl, 25 μM cytochalasin B, 1 mg/ml BSA) containing either radioactive U-[^14C]-mannose (15,000 cpm/well) or 2-[^3H]-1,5-AG (30,000 cpm/well) and respectively, non-radioactive mannose or 1,5-AG, at the required concentration in the experiment. Importantly, when measuring the transport of mannose, the uptake media also contained 0.5 mM glucose. This resulted from the need to reduce the background transport of mannose in control HEK293T cells in order to optimize the transport assay for this sugar in our model cell lines. Consequently, after testing various inhibitors (Supplementary Fig. 1), 0.5 mM glucose + 25 µM cytochalasin B appeared as the best combination to decrease efficiently the endogenous transport of mannose in control cells without affecting the transport of mannose in model cell lines overexpressing SGLT4 and SGLT5. Therefore in the radioactive uptake assays for mannose, the uptake medium was: basal uptake medium + 140 mM NaCl, 25 μM cytochalasin B, 0.5 mM glucose and 1 mg/ml BSA to which we added U-[^12C + ^14C]-mannose as described above.
(§3) Once the uptake medium was added to the cells, the plates were incubated at 37 °C in 5% CO2 during the required time. […] In each experiment, the transport activities were calculated after subtracting a “blank” value, corresponding to the radioactivity in the appropriate control cells (HEK293T cells that were stably or transiently transfected with one of the parent plasmids pEF6/MycHisA, pEF6HisB, pUB82 or pUB83 with no inserted cDNA) that were analyzed in parallel.
(§4) The transport experiments to study the specificity of SGLT4 or SGLT5, were performed in the presence of 10 µM U-[^14C + ^12C]-mannose (for SGLT4) or 2-[^3H + ^1H]-1,5-AG (for SGLT5) and increasing concentrations of various sugars tested. The transport experiments to study the inhibition of empagliflozin, dapagliflozin or remogliflozin, on the transport of 1,5-AG by SGLT5 or its variants were performed in the presence of 10 µM 2-[^3H + ^1H]-1,5-AG and increasing concentrations of the various gliflozins tested.

[2] = target: T2, human SGLT4 (Homo sapiens, UniProt Q2M3M2); assay: Inhibition of 10 µM radiolabelled mannose transport in HEK293T cells overexpressing human SGLT4; conditions: for inhibition at 10000 µM: HEK-293T, read-out: hSGLT4 inhibition with 10 mM inhibitor
T2 construct: expressed in transfected cells
T2 sequence (Q2M3M2 1-681): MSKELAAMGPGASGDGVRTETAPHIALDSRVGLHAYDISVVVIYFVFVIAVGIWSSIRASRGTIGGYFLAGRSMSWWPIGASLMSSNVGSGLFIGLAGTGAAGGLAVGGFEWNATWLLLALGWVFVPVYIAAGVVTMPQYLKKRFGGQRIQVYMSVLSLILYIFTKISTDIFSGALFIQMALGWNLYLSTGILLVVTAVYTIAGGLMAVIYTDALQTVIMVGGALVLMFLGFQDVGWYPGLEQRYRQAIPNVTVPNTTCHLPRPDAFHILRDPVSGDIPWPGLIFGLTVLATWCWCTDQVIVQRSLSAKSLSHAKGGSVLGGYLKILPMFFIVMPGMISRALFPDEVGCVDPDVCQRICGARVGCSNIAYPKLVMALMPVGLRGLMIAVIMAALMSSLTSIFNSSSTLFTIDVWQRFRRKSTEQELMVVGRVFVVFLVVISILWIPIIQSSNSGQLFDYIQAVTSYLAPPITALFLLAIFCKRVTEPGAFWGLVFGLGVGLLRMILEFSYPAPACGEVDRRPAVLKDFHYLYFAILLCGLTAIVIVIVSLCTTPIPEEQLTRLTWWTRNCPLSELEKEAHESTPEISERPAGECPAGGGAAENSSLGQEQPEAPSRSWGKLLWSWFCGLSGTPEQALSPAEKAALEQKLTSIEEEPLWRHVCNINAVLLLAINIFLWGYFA
Protocol: as §1, §2, §3, §4

[3] = target: T3, SGLT5-TM (S70N–E71I–L75H) (Homo sapiens, UniProt A0PJK1, E71I/L75H/S70N); assay: Inhibition of 10 µM 1,5-AG transport by triple mutant SGLT5-TM (S70N-E71I-L75H); conditions: versus wild-type SGLT5, competition experiments, Supplementary Fig. 7
T3 construct: pUB83-hSGLT5-iso2 as well as the various SGLT5 mutants obtained were used to transduce HEK293T cells; expressed in transfected cells; host or cells: HEK293T, lentiviral transduction (pUB83)
T3 sequence (A0PJK1 whole entry S70N/E71I/L75H): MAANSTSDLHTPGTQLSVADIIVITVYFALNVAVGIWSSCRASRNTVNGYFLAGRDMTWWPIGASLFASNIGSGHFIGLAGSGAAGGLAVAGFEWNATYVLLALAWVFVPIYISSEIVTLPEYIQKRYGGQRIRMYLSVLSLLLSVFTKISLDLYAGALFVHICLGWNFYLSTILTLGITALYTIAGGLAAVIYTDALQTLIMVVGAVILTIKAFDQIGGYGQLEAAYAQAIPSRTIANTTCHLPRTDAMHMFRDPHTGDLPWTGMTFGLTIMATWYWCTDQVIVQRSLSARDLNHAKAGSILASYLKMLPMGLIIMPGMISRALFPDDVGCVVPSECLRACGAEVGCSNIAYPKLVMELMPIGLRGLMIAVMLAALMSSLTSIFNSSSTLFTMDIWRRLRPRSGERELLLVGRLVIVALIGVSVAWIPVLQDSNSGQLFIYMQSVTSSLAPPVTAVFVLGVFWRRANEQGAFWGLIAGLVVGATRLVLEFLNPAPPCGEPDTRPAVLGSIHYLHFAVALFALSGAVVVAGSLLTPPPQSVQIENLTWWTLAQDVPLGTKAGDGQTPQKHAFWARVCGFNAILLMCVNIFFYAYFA
Protocol: as §4
SGLT5 mutants were created using the quick-change site directed mutagenesis method that enables effective mutagenesis without subcloning of the amplified PCR products. Complementary primer pairs carrying the desired replacements (Supplementary Table 3) were designed using an online tool (https://www.agilent.com/store/primerDesignProgram.jsp). The PCR protocol was carried out following the manufacturer instructions regarding the KOD HOT Start polymerase kit (TOYOBO™, Novagen). The amplified DNA was cleaned-up from the reactions constituents using the GeneJET PCR purification Kit (Thermo Scientific™) and the size of the DNA fragment were verified by DNA agarose-gel electrophoresis. After eliminating the parental DNA by digesting the purified DNA with the DpnI restriction enzyme, the DNA fragments containing the appropriate changes were transformed in E. coli NEB Turbo competent cells (C2984H). Once colonies were obtained, plasmid DNA was finally amplified, purified and sequenced to verify that the required changes had been introduced and eliminate any PCR errors. Next, pUB83-hSGLT5-iso2 as well as the various SGLT5 mutants obtained were used to transduce HEK293T cells using the exact same protocol as described above to create model cell lines overexpressing the different SGLT5 transporters.
Supplementary Fig. 7: Substrate specificity of SGLT5 - impact of replacing specific and conserved substrate binding residues in human SGLT5 by the equivalent ones in […]
When shown, the IC50 values are derived from inhibition curves showing the transport activity of 1,5-AG by the indicated SGLT5 mutants. Values show the concentration needed of the various sugars to inhibit by 50% the transport activity of 10 µM 2-[1H+3H]-1,5-AG. When the inhibition was too weak to derive IC50 values, the inhibition of the transport of 1,5-AG with the indicated concentration of the inhibitor-sugar is shown. Of note, despite having a lower […]
µM). These apparently contradictory changes are not necessarily surprising: in the case of enzymes, there are multiple examples of mutations that, at the same time, increase the apparent affinity (decrease the Km) of an enzyme for its substrate while decreasing the Vmax.
Measurement of transport activities and the description of the structures of the various inhibitory sugars used are as in Fig. 3C. Data corresponds to n = 3 in at least 2 independent […]
(1 picture or pasted object on this page, not shown here)

[4] = substrate: OC[C@H]1OC[C@H](O)[C@@H](O)[C@@H]1O; assay: Radioactive uptake assay (saturation kinetics) in HEK293T cells expressing mouse SGLT5; conditions: other: 30 min, Supplementary Fig. 4; pH 7.4; 37.0 °C
Protocol: as §1
On day two, the radioactive uptake assay could be performed. […]
Once the uptake medium was added to the cells, the plates were incubated at 37 °C in 5% CO2 during the required time. […] In each experiment, the transport activities were calculated after subtracting a “blank” value, corresponding to the radioactivity in the appropriate control cells (HEK293T cells that were stably or transiently transfected with one of the parent plasmids pEF6/MycHisA, pEF6HisB, pUB82 or pUB83 with no inserted cDNA) that were analyzed in parallel. […]
Supplementary Fig. 4: Transport activities for 1,5-anhydroglucitol and mannose of recombinant mouse SGLT4 and SGLT5 isoforms measured in HEK293T cells. […]

[5] = substrate 10 μM 1,5-AG, unlabelled sugars, Fig. 3C, read-out: hSGLT5 IC50
[6] = 10 mM inhibitor, substrate 10 μM mannose
[7] = 10 µM 2-[1H+3H]-1,5-AG, Fig. 5C, read-out: IC50 for SGLT5-mediated 1,5-AG transport (gliflozins)

Molecule: OC[C@H]1OC[C@@H](O)[C@@H](O)[C@@H]1O [1,5-AM, 1,5-anhydromannitol]
preference for 1,5-anhydromannitol over 1,5-AG, difference in Ki ([1]; SGLT5): 12 fold
preference of 1,5-anhydromannitol over mannose, difference in Ki ([1]; SGLT5): 25 fold
IC50 [1, 5]: 13 µM
less affinity of SGLT4 compared to SGLT5 ([2]; from Fig. 3C): 200 fold
IC50 ([2]; substrate 10 μM mannose, Fig. 3C, read-out: hSGLT4 IC50): 2300 µM
loss of affinity of SGLT5-TM [3]: 250 fold

Molecule: OC[C@H]1OC(O)[C@H](O)[C@@H](O)[C@@H]1O (some centres unmarked) [Glucose, glucose]
IC50 [1, 5]: 3650 µM
inhibition at 10000 µM [2, 6]: 20%
gain of affinity of SGLT5-TM [3]: 30 fold

Molecule: galactose
hSGLT5 inhibition with 10 mM inhibitor ([1]; 10 mM inhibitor, substrate 10 μM 1,5-AG): 10%
hSGLT4 inhibition with 10 mM inhibitor [2, 6]: 39%
gain of affinity of SGLT5-TM [3]: 30 fold

IC50 [1, 7]: 0.26 µM and 0.27 µM
Molecule: Cc1c(Cc2ccc(OC(C)C)cc2)c(O[C@@H]2O[C@H](CO)[C@@H](O)[C@H](O)[C@H]2O)nn1C(C)C [remogliflozin]

Molecule: O=C(CO)[C@@H](O)[C@H](O)[C@H](O)CO [Fructose, fructose]
IC50 [1]: 726 µM
inhibition at 10000 µM [2, 6]: 33%
loss of affinity of SGLT5-TM [3]: tenfold

IC50 [1, 5]: 179 µM
inhibition at 10000 µM [2, 6]: 44%
Molecule: O=C1CO[C@H](CO)[C@@H](O)[C@@H]1O [1,5-AF, 1,5-anhydrofructose]

IC50 [1, 7]: 0.4 µM
Molecule: CCOc1ccc(Cc2cc([C@@H]3O[C@H](CO)[C@@H](O)[C@H](O)[C@H]3O)ccc2Cl)cc1 [dapagliflozin]

B1: mouse SGLT5 (Mus musculus) (protein)
chain: MAGNSTGDAHVPGSQLSVTDIIVISVYFALNVAVGIWSACRANKNTVSGYFLAGRDMAWWPIGASLFASSEGSGLFVGLAGSGAAGGLAVAGFEWNATYVLLALAWVFVPIYISSEIVTLPEYIQKRFGGQRIRTYLSVLSLMLSVFTKISIDLYAGALFVHICLGWNFYLSTILTLAITALYTIAGGLATVIYTDALQTIIMVVGAVILAVKAFNQIGGYEQLEAAYAQAIPSRTIPNTTCHLPRADAMHMFRDPSTGDLPWTGMTFGLTIMATWYWCTDQVIVQRSLSARNLNHAKAGSILASYLKMLPMGLMIMPGMISRVLFPDDVGCVVPSECLRACGAEIGCSNIAYPKLVMELMPIGLRGLMIAVMMAALLSSLTSIFNSSSTLFTMDIWRQLRPSAGERELLLVGRLVIVVLIGVSVAWIPVLQGSNSGQLFIYMQSVTSSLAPPVTAIFILGIFWRRANEQGAFWGLMAGLVVGALRLVLEFLYPEPPCGQIDTRPAPLRSLHYLHFAIALFLLTCAVMAAGSLLSPPPQQRQIENLTWWTLAPNWSLGTKTGDGQTPQKRAFWARVCNVNAIFLMCVNIFFYAYFA
notes: expressed in transfected cells; host or cells: HEK293T
Km [4]: 500 µM
